Test results reported in patent US20240091226A1, “Forms and Formulations Of A Tyrosine Kinase Non-Receptor 1 (TNK1) Inhibitor” (Sumitomo Pharma Oncology, inc., priority 2021, published 2024).
In brackets after ≈: the same amount, converted by molar mass. Entries after “also recorded” stand apart in the source; their conditions may differ.

Legend:
[1] = Hygroscopicity by dynamic vapor sorption (DVS); assay type: physicochemical; settings: for Hygroscopicity (%), water uptake: DVS, 25° C./80% RH; for Form Change after DVS: XRPD before and after DVS
Protocol: Hygroscopicity. DVS isotherm plot was collected at 25° C. to investigate the solid form stability as a function of humidity. All of Freebase Type E+F, L-Malate Type B, Succinate Type B and Mesylate Type A were equilibrated at ambient humidity (70% RH or 80% RH) to prevent form change before testing.
DVS. Dynamic Vapor Sorption (DVS) was measured via a SMS (Surface Measurement Systems) DVS Intrinsic. The relative humidity at 25° C. was calibrated against deliquescence point of LiCl, Mg(NO3)2 and KCl.

[2] = Two-week solid-state stability (XRPD, HPLC purity); assay type: physicochemical; settings: two weeks; for Stress stability / solid-state physical and chemical stability (in words): 25° C./60% RH and 40° C./75% RH (open); for Purity (area %) after storage / Purity vs Initial (%): open
Protocol: Solid-state Stability. Solid-state stability of Freebase Type E+F (818718-01-A), L-Malate Type B (818718-21-A1) and Mesylate Type A (818718-21-A5) were evaluated under 25° C./60% RH and 40° C./75% RH (open) for two weeks. Stability samples were characterized by XRPD to check any solid form change, and by HPLC to check purity change.

[3] = Kinetic solubility in water, SGF and FaSSIF at 37° C.; assay type: physicochemical; settings: for Kinetic solubility in water (in words): Freebase Type E+F as control
Protocol: Kinetic Solubility. Kinetic solubility of salt leads was measured in water, SGF and FaSSIF to evaluate their solubility and disproportionation risk, using Freebase Type E+F (818718-01-A) as control. […] After centrifugation, supernatants were collected for HPLC and pH tests, and wet cakes were collected for XRPD characterization.

Apc^Min+/− mice = assay: ApcMin mouse efficacy model; assay type: in vivo
Protocol: TNK1 upregulation is reported to play a role in the pathogenic process of intestinal barrier disruption in a transgenic mice model of increased TNK1 expression/activation (PMID: 30320600). Therefore, the efficacy of the compound of structural formula I was evaluated in germline mutant mouse model of intestinal neoplasia and cachexia, Apc^Min+/− model, which is also known to induce gut barrier dysfunction (PMID: 21914473). Apc^Min+/− mice are reported to start the development of tumors at approximately 4 weeks of age. Twenty female Apc^Min+/− mice (JAX Stock No: 002020) were enrolled in the study at the age of 10 weeks. Randomization was done based on the body weight, and animals were divided into four treatment groups (5 mice/group). […] Celecoxib is a COX-2 inhibitor, and was used as a positive control because it has been reported to prevent and regress adenomas in APC model (PMID: 11016626). Mice were sacrificed 2 hours after the last dose of total 10 weeks of dosing (71 days), at the age of 20 weeks. After dosing started, the animals were checked daily for morbidity and mortality.

Row | Hygroscopicity (%), water uptake [1] [%] | Form Change after DVS [1] | Purity (area %) after storage ([2]; 25° C./60% RH) [area %] | Purity vs Initial (%) ([2]; 25° C./60% RH) | Purity (area %) after storage ([2]; 40° C./75% RH) [area %] | Purity vs Initial (%) ([2]; 40° C./75% RH) | S: solubility ([3]; FaSSIF, 1 hr) [µg/mL] | pH: final pH ([3]; FaSSIF, 1 hr) | S: solubility ([3]; FaSSIF, 4 hrs) [µg/mL] | pH: final pH ([3]; FaSSIF, 4 hrs) | S: solubility ([3]; FaSSIF, 24 hrs) [µg/mL] | pH: final pH ([3]; FaSSIF, 24 hrs) | S: solubility ([3]; H2O, 1 hr) [µg/mL] | pH: final pH ([3]; H2O, 1 hr) | S: solubility ([3]; H2O, 4 hrs) [µg/mL] | pH: final pH ([3]; H2O, 4 hrs) | S: solubility ([3]; H2O, 24 hrs) [µg/mL] | pH: final pH ([3]; H2O, 24 hrs) | SMILES | Stress stability / solid-state physical and chemical stability (in words) [2] | Kinetic solubility in SGF (in words) ([3]; SGF) | also measured
1 | 3.00 | No form change and No | 98.97 | 100.0 | 98.96 | 100.0 | 7200 | 5.0 | 6900 | 4.9 | 7400 | 4.9 | 7100 | 4.0 | 7200 | 4.0 | 6700 | 4.1 | COc1cc(N2CCN(C)CC2)c(Cl)cc1Nc1ncc(Cl)c(Nc2cccnc2N2CCCC2=O)n1 [L-Malate Type B] | good physical and chemical stability; also recorded: good physicochemical stability | showed relatively high solubility in SGF at 37 °C L-Malate | Kinetic solubility in FaSSIF (in words) ([3]; FaSSIF, compared with Mesylate Type A and Freebase Type E+F): Type B showed much higher solubility than Mesylate Type A; S: solubility ([3]; SGF, 1 hr): 7600 µg/mL; pH: final pH ([3]; SGF, 1 hr): 3.2; S: solubility ([3]; SGF, 4 hrs): 7700 µg/mL; pH: final pH ([3]; SGF, 4 hrs): 3.1; S: solubility ([3]; SGF, 24 hrs): 6900 µg/mL; pH: final pH ([3]; SGF, 24 hrs): 3.2; Kinetic solubility in water (in words) [3]: increased solubility
2 | 2.74 | No form change and No | 99.31 | 100.1 | 99.43 | 100.2 | 370 | 6.4 | 360 | 6.3 | 340 | 6.2 | 7500 | 6.1 | 7500 | 6.2 | 7400 | 6.0 | COc1cc(N2CCN(C)CC2)c(Cl)cc1Nc1ncc(Cl)c(Nc2cccnc2N2CCCC2=O)n1 [Mesylate Type A] | good physical and chemical stability; also recorded: good physicochemical stability; also recorded: good physiochemical stability | showed relatively high solubility in SGF at 37 °C L-Malate | FC: form change ([3]; FaSSIF, 1 hr): new form with low crystallinity and Yes; FC: form change ([3]; FaSSIF, 4 hrs): Yes; FC: form change ([3]; FaSSIF, 24 hrs): Yes; S: solubility ([3]; SGF, 1 hr): 8200 µg/mL; pH: final pH ([3]; SGF, 1 hr): 2.5; S: solubility ([3]; SGF, 4 hrs): 8000 µg/mL; pH: final pH ([3]; SGF, 4 hrs): 2.6; S: solubility ([3]; SGF, 24 hrs): 7400 µg/mL; pH: final pH ([3]; SGF, 24 hrs): 2.5; Kinetic solubility in water (in words) [3]: increased solubility
3 | – | – | – | – | – | – | – | – | – | – | – | – | – | – | – | – | – | – | Cc1ccc(-c2cc(C(F)(F)F)nn2-c2ccc(S(N)(=O)=O)cc2)cc1 [celecoxib, reference compound] | – | – | reduction of spleen size compared to vehicle (Apc^Min+/− mice; 120 mg/kg): approximately 26%; decrease in number of polyps in the intestine compared to vehicle (Apc^Min+/− mice; 120 mg/kg once daily oral gavage, 10 weeks, female Apc^Min+/− mice): approximately 90%
4 | 1.55 | No form change | 98.64 | 100.0 | 98.75 | 100.1 | 170 | 6.6 | 180 | 5.6 | 110 | 6.5 | 1.2 | 8.8 | 1.2 | 8.6 | 2.4 | 8.4 | COc1cc(N2CCN(C)CC2)c(Cl)cc1Nc1ncc(Cl)c(Nc2cccnc2N2CCCC2=O)n1 [Freebase Type E+F] | good physical and chemical stability; also recorded: good physicochemical stability | relatively high solubility | Hygroscopicity (%), water uptake ([1]; listed as Freebase Type E + F): hygroscopic (1.55) %; Form Change after DVS ([1]; listed as Freebase Type E + F): No; Hygroscopicity (class) ([1]; based on water uptake at 25° C./80% RH): slightly hygroscopic (slightly hygroscopic - 0.2~2%); FC: form change ([3]; FaSSIF, 1 hr): Yes; FC: form change ([3]; FaSSIF, 4 hrs): Yes; FC: form change ([3]; FaSSIF, 24 hrs): Yes; FC: form change ([3]; H2O, 1 hr): Yes; FC: form change ([3]; H2O, 4 hrs): Yes; FC: form change ([3]; H2O, 24 hrs): Yes; solubility at 1 h ([3]; SGF, 37 °C, simulated gastric fluid, thermodynamic from solid, SGF, 1 hr, read-out: S: solubility): 7100 µg/mL (≈ 13.1 mM); solubility at 4 h ([3]; SGF, 37 °C, simulated gastric fluid, thermodynamic from solid, SGF, 4 hrs, read-out: S: solubility): 7200 µg/mL (≈ 13.2 mM); solubility at 24 h ([3]; SGF, 37 °C, simulated gastric fluid, thermodynamic from solid, SGF, 24 hrs, read-out: S: solubility): 7200 µg/mL (≈ 13.2 mM); FC: form change ([3]; SGF, 1 hr): Yes; pH: final pH ([3]; SGF, 1 hr): 5.4; FC: form change ([3]; SGF, 4 hrs): Yes; pH: final pH ([3]; SGF, 4 hrs): 5.4; FC: form change ([3]; SGF, 24 hrs): Yes; pH: final pH ([3]; SGF, 24 hrs): 6.2; Kinetic solubility in SGF (in words) ([3]; SGF, listed as Freebase Type E + F): showed relatively high solubility in SGF at 37 °C L-Malate; form after kinetic solubility test ([3]; all the three media (water, SGF, FaSSIF)): turned to Freebase Type E
5 | 8.22 | No form change | – | – | – | – | – | – | – | – | – | – | – | – | – | – | – | – | COc1cc(N2CCN(C)CC2)c(Cl)cc1Nc1ncc(Cl)c(Nc2cccnc2N2CCCC2=O)n1 [Succinate Type B] | – | – | –
